{"source": "patent EP4559919A1", "about": "“TRICYCLIC-CONTAINING MACROCYCLIC COMPOUND AND USE THEREOF” (Medshine Discovery Inc., priority 2022, dated 2024)", "key": {"ALK(G1202R/L1196M)": {"molecular_target": "T1, ALK(G1202R/L1196M) (Homo sapiens, UniProt Q9UM73, G1202R/L1196M)", "T1 construct": "purchased Carna", "T1 sequence (Q9UM73 19-1620 L1196M/G1202R)": "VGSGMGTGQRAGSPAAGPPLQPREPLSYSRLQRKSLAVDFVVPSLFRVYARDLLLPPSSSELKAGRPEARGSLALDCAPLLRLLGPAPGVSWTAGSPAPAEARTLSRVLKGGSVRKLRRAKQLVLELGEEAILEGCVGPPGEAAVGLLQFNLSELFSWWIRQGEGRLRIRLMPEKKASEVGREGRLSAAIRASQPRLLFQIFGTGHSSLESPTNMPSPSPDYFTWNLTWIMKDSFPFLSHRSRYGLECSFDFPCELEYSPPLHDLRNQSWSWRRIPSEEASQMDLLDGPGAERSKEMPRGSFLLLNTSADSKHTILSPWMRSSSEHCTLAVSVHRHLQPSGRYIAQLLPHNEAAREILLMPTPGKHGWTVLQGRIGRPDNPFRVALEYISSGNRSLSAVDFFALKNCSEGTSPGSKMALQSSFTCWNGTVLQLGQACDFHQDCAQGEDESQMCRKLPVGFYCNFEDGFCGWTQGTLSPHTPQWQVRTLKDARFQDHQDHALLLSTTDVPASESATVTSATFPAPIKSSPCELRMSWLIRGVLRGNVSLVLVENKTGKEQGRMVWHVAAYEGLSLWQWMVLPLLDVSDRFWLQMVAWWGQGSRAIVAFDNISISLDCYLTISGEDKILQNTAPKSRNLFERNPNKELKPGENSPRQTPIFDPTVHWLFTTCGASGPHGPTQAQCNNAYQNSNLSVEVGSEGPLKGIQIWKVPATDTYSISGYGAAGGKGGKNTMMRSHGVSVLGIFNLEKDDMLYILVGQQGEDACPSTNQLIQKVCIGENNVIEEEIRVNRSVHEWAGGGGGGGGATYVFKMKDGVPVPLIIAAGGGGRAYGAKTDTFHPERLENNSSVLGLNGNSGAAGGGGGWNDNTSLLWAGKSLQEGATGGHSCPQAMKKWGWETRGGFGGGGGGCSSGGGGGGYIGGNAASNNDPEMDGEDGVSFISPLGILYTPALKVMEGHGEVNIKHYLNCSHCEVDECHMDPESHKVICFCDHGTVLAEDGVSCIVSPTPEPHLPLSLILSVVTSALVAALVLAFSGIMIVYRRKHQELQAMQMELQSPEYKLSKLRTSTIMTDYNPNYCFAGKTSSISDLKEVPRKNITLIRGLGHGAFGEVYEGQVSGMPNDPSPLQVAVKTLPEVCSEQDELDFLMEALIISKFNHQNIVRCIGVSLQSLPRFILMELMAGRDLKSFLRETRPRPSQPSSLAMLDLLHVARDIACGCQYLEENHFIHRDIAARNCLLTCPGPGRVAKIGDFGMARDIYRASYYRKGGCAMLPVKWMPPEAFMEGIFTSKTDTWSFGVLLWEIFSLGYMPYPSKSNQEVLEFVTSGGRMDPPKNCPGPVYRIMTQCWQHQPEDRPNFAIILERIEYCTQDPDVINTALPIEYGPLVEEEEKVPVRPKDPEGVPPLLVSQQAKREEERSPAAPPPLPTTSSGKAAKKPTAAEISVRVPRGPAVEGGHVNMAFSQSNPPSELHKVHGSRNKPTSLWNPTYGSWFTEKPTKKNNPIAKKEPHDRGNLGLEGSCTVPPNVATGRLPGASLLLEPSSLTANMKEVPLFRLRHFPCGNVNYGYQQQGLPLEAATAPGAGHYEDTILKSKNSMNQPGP", "test": "In vitro kinase inhibitory activity assay, Experimental method 2 (ADP-Glo)", "type": "biochemical", "conditions": "Experimental method 2; ATP 5.0 µM, substrate IGF1; read-out: Kinase half maximal inhibitory concentration IC50 ALK^G1202R/L1196M"}, "TRKB": {"molecular_target": "T2, TRKB (Homo sapiens, UniProt Q16620)", "T2 construct": "purchased Carna", "T2 sequence (Q16620 32-822)": "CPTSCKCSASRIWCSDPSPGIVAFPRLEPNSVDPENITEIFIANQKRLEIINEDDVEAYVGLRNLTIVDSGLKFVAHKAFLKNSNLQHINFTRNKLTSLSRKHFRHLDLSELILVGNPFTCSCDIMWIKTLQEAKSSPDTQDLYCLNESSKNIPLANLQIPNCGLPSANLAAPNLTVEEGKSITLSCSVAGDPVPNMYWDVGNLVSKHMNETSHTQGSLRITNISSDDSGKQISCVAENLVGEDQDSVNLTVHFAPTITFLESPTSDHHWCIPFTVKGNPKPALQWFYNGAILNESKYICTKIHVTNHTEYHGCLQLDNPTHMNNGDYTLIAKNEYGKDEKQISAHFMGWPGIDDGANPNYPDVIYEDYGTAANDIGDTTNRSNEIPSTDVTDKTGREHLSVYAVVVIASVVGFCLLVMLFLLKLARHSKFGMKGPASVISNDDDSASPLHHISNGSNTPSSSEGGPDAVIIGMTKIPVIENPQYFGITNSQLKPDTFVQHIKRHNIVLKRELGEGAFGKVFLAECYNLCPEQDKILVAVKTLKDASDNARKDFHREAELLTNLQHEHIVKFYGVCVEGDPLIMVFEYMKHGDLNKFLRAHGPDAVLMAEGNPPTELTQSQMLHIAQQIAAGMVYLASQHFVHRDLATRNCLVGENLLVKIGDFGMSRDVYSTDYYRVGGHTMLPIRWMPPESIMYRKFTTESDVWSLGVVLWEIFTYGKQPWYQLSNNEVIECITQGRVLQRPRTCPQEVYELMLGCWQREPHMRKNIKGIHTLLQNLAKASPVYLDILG", "test": "In vitro kinase inhibitory activity assay, Experimental method 2 (ADP-Glo)", "type": "biochemical", "conditions": "Experimental method 2; ATP 5.0 µM, substrate PolyE4Y1; read-out: Kinase half maximal inhibitory concentration IC50 TRKB"}, "CYP1A2": {"molecular_target": "T3, CYP1A2 (Homo sapiens, UniProt P05177)", "T3 construct": "Mixed human liver microsomes (HLM) purchased from Corning Inc; tissue Corning Inc; host or cells: pooled human liver microsomes", "T3 sequence (P05177 1-516)": "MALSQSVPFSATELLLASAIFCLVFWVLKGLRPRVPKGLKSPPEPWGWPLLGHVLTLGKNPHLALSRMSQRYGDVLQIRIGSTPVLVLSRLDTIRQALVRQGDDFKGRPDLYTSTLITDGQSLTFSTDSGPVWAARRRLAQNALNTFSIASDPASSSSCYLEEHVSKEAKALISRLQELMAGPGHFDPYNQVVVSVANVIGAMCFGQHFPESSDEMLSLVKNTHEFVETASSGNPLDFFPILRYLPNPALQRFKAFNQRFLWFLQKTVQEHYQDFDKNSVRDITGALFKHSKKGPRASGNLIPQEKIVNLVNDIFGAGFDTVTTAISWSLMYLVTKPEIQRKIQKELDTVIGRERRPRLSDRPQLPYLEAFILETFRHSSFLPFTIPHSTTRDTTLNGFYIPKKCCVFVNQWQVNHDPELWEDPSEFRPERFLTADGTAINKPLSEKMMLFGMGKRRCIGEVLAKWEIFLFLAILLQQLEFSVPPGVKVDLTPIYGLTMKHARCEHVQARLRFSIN", "test": "Cytochrome P450 isozyme inhibitory activity test (human liver microsomes)", "type": "in vitro ADME", "conditions": "human liver microsomes 0.1 mg/mL"}, "CYP2C9": {"molecular_target": "T4, CYP2C9 (Homo sapiens, UniProt P11712)", "T4 construct": "Mixed human liver microsomes (HLM) purchased from Corning Inc; tissue Corning Inc; host or cells: pooled human liver microsomes", "T4 sequence (P11712 whole entry)": "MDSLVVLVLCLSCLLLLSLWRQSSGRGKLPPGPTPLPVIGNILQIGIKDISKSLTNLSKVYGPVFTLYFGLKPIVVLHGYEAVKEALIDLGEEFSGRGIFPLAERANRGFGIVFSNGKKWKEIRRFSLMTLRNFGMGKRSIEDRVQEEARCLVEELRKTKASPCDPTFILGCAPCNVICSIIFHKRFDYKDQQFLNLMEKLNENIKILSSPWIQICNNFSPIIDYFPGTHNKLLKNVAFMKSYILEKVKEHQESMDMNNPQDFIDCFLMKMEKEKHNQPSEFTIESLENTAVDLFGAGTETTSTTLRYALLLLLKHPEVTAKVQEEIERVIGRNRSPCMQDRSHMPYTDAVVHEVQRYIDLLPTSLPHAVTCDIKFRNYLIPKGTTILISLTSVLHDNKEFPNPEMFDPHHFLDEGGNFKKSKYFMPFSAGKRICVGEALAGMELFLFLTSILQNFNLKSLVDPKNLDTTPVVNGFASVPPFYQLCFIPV", "test": "Cytochrome P450 isozyme inhibitory activity test (human liver microsomes)", "type": "in vitro ADME", "conditions": "human liver microsomes 0.1 mg/mL; probe substrate Diclofenac", "experimental": "To test the inhibitory activity of the compounds of the present disclosure on different subtypes of human liver microsomal cytochrome P450 isozymes.\nMixed human liver microsomes (HLM) purchased from Corning Inc. (Steuben, New York, USA); Diclofenac as the probe substrate (10 µM); Sulfaphenazole as the positive control inhibitor; 4'-Hydroxydiclofenac as the metabolite\nPreparation of test system working solution: Human liver microsomes (HLM): HLM stock solution at 20.0 mg/mL, working solution at 0.2 mg/mL, final concentration at 0.1 mg/mL; Potassium phosphate buffer: 100 mM; Cofactor working solution: Magnesium chloride, NADP (nicotinamide adenine dinucleotide phosphate), G6P (glucose-6-phosphate), G6PDH (glucose-6-phosphate dehydrogenase), and phosphate buffer or magnesium chloride, NADPH (reduced nicotinamide adenine dinucleotide phosphate) powder, and potassium phosphate buffer; prepared into cofactor working solution at appropriate ratios;\nStop solution: Isotope-labeled 4'-hydroxydiclofenac-d4 stock solution prepared in methanol, then prepared into stop solution using acetonitrile.\nIn the substrate-free control sample wells of the reaction plate, 100 µL of a mixture of human liver microsome and potassium phosphate buffer was added. At the zero-time point sample wells, 98 µL of a mixture of the human liver microsome and potassium phosphate buffer was added. In the no-inhibitor control (NIC), test compound, and positive control inhibitor sample wells of the reaction plate, 100 µL of a mixture of the human liver microsome and substrate was added. From the dilution plate, 2 µL of blank solvent, test compound working solution (three parallels), and positive control inhibitor working solution (two parallels) were added to the reaction plate. The reaction plate was preheated at 37.0°C for 10 minutes. […] The concentration of specific metabolites in the samples was detected using the liquid chromatography-tandem mass spectrometry (LC-MS/MS) method. […] The IC50 values were calculated using a three-parameter or four-parameter inverse log equation."}, "CYP2C19": {"molecular_target": "T5, CYP2C19 (Homo sapiens, UniProt P33261)", "T5 construct": "Mixed human liver microsomes (HLM) purchased from Corning Inc; tissue Corning Inc; host or cells: pooled human liver microsomes", "T5 sequence (P33261 whole entry)": "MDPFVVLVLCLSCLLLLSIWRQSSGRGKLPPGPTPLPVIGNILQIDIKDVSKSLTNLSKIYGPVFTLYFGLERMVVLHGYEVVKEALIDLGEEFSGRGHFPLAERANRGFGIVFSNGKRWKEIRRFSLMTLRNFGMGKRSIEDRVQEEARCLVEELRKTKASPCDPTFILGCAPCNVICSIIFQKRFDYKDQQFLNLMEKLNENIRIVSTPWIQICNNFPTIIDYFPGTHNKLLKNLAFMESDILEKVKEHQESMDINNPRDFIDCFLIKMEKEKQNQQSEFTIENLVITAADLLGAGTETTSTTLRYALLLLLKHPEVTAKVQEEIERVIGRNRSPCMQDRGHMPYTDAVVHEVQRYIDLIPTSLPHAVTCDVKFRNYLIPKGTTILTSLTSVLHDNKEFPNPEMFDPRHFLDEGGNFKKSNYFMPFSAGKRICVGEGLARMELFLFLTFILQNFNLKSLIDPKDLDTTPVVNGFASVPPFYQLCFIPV", "test": "Cytochrome P450 isozyme inhibitory activity test (human liver microsomes)", "type": "in vitro ADME", "conditions": "human liver microsomes 0.1 mg/mL"}, "CYP2D6": {"molecular_target": "T6, CYP2D6 (Homo sapiens, UniProt P10635)", "T6 construct": "Mixed human liver microsomes (HLM) purchased from Corning Inc; tissue Corning Inc; host or cells: pooled human liver microsomes", "T6 sequence (P10635 whole entry)": "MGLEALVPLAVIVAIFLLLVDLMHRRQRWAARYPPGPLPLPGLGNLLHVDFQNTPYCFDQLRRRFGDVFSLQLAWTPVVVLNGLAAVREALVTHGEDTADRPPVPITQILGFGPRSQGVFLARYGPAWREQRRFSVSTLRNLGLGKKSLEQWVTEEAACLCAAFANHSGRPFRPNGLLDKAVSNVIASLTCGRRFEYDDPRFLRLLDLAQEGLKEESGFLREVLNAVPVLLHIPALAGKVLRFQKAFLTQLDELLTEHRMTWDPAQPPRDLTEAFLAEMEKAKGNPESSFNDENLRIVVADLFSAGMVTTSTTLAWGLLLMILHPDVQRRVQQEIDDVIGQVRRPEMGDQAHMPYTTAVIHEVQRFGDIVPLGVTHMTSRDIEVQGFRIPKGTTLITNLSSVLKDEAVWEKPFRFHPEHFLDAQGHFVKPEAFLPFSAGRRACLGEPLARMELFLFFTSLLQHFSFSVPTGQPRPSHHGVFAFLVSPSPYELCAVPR", "test": "Cytochrome P450 isozyme inhibitory activity test (human liver microsomes)", "type": "in vitro ADME", "conditions": "human liver microsomes 0.1 mg/mL"}, "CYP3A4-M": {"molecular_target": "T7, CYP3A4-M (Homo sapiens, UniProt P08684)", "T7 construct": "Mixed human liver microsomes (HLM) purchased from Corning Inc; tissue Corning Inc; host or cells: pooled human liver microsomes", "T7 sequence (P08684 whole entry)": "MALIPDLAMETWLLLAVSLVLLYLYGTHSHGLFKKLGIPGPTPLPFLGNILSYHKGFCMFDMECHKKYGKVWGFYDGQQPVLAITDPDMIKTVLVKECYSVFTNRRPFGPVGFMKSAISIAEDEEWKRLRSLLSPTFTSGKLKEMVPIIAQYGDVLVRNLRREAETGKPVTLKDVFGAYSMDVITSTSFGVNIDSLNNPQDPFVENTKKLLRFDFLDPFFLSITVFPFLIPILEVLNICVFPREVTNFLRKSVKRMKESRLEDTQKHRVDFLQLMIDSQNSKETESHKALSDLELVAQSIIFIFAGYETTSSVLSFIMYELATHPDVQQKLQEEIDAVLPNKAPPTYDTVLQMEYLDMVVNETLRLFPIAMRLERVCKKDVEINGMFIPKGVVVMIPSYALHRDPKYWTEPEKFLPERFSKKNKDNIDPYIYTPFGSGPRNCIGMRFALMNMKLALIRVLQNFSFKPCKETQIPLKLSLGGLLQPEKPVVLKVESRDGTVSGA", "test": "Cytochrome P450 isozyme inhibitory activity test (human liver microsomes)", "type": "in vitro ADME", "conditions": "human liver microsomes 0.1 mg/mL"}}}
{"smiles": "Cc1nn2cc3c4nc2c1C(=O)NC1(CC1)COc1ccc(F)cc1CN4[C@H](C(F)F)CO3", "note": "[Compound 016]", "values": [{"measurement": "IC50", "setting": "ALK(G1202R/L1196M)", "value": 0.0009, "unit": "µM"}, {"measurement": "IC50", "setting": "TRKB", "value": 0.0003, "unit": "µM"}, {"measurement": "IC50", "setting": "CYP1A2", "value": "> 50", "unit": "µM"}, {"measurement": "IC50", "setting": "CYP2C9", "value": 3.12, "unit": "µM"}, {"measurement": "IC50", "setting": "CYP2C19", "value": 22.7, "unit": "µM"}, {"measurement": "IC50", "setting": "CYP2D6", "value": "> 50", "unit": "µM"}, {"measurement": "IC50", "setting": "CYP3A4-M", "value": "> 50", "unit": "µM"}]}
